Reference: patent US20150011466A1, “APJ Receptor Compounds” (priority 2012, published 2015)
Where a SMILES comes first, the peptide text is derived from it. [ ]: non-standard residue; d: D form. The star is where a group is joined. Palmitoyl = CCCCCCCCCCCCCCCC(=O)*

Target: T1, APJ receptor (Homo sapiens, UniProt P35414)
T1 construct: expressed in transfected cells; host or cells: Human TRex cells (doxycycline-inducible)
T1 sequence (P35414 1-380): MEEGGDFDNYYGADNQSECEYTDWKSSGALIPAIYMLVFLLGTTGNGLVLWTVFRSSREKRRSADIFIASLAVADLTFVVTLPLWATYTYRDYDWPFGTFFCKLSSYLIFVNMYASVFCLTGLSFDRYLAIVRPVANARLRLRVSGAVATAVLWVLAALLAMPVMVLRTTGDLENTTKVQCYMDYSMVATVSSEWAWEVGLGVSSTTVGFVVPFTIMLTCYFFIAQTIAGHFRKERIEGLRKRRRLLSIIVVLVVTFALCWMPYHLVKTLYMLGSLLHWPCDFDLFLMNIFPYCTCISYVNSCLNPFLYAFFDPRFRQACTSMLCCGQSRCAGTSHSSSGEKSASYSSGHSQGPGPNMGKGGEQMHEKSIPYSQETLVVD
Assay: HTRF cAMP assay, inhibition of NKH477 stimulated cAMP in Human TRex cells expressing APJ upon doxycycline induction (APJ-hTREX)
Type: cell-based
Details: read-out: % IA (@ 300 nM)
Excerpt: HTRF (homogeneous time resolved fluorescence) is a technology developed by Cisbio Bioassays based on TR-FRET (time-resolved fluorescence resonance energy transfer). Cisbio Bioassays has developed a wide selection of HTRF-based assays compatible with whole cells, thereby enabling functional assays to run under more physiological conditions. The IP-One assays are competitive immunoassays using cryptate-labeled anti-IP1 monoclonal antibody and d2-labeled IP1. IP1 is a relatively stable downstream metabolite of IP3, and accumulates in cells following Gq receptor activation.
cAMP kits based on a competitive immunoassay using cryptate-labeled anti-cAMP antibody and d2-labeled cAMP were used to assay the effects of APJ compounds of the present invention. […] Cells are treated with […] doxycycline and seeded in all white 96 well plates @ 40 k/well overnight.

Point of comparison: `CCCCCCCCCCCCCCCC(=O)N[C@@H](Cc1c[nH]cn1)C(=O)N[C@H](C(=O)N[C@@H](Cc1ccccc1)C(=O)N[C@@H](CCCNC(=N)N)C(=O)N[C@@H](CO)C(=O)N[C@@H](CO)C(=O)N[C@@H](CCC(=O)O)C(=O)N[C@H](CCCCN)C(=O)N[C@@H](CCCNC(=N)N)C(=O)N[C@@H](CCCNC(=N)N)C(=O)N[C@@H](CO)C(=O)N[C@@H](C)C(=O)N[C@@H](CC(=O)O)C(=O)N[C@H](C(=O)N[C@@H](Cc1ccccc1)C(=O)N[C@H](C(N)=O)[C@@H](C)CC)[C@@H](C)CC)C(C)C` [Compound 7] (Palmitoyl-HVFRSSE[dK]RRSADIFI-NH2), percent intrinsic activity at 0.3 µM 50%. Against it:
- CCCCCCCCCCCCCCCC(=O)N[C@H](C(=O)N[C@@H](Cc1ccccc1)C(=O)N[C@@H](Cc1ccccc1)C(=O)N[C@@H](CCCNC(=N)N)C(=O)N[C@@H](CO)C(=O)N[C@@H](CO)C(=O)N[C@@H](CCC(=O)O)C(=O)N[C@H](CCCCN)C(=O)N[C@@H](CCCNC(=N)N)C(=O)N[C@@H](CCCNC(=N)N)C(=O)N[C@@H](CO)C(=O)N[C@@H](C)C(=O)N[C@@H](CC(=O)O)C(=O)N[C@H](C(=O)N[C@@H](Cc1ccccc1)C(=O)N[C@H](C(N)=O)[C@@H](C)CC)[C@@H](C)CC)[C@@H](C)O [Compound 2] (Palmitoyl-TFFRSSE[dK]RRSADIFI-NH2) — higher, 59%
- CCCCCCCCCCCCCCCC(=O)N[C@H](C(=O)N[C@@H](Cc1c[nH]cn1)C(=O)N[C@@H](Cc1ccccc1)C(=O)N[C@@H](CCCNC(=N)N)C(=O)N[C@@H](CO)C(=O)N[C@@H](CO)C(=O)N[C@@H](CCC(=O)O)C(=O)N[C@H](CCCCN)C(=O)N[C@@H](CCCNC(=N)N)C(=O)N[C@@H](CCCNC(=N)N)C(=O)N[C@@H](CO)C(=O)N[C@@H](C)C(=O)N[C@@H](CC(=O)O)C(=O)N[C@H](C(=O)N[C@@H](Cc1ccccc1)C(=O)N[C@H](C(N)=O)[C@@H](C)CC)[C@@H](C)CC)[C@@H](C)O [Compound 8] (Palmitoyl-THFRSSE[dK]RRSADIFI-NH2) — higher, 63%
- CCCCCCCCCCCCCCCC(=O)N[C@H](C(=O)N[C@H](C(=O)N[C@@H](Cc1ccccc1)C(=O)N[C@@H](Cc1c[nH]cn1)C(=O)N[C@@H](CO)C(=O)N[C@@H](CO)C(=O)N[C@@H](CCC(=O)O)C(=O)N[C@H](CCCCN)C(=O)N[C@@H](CCCNC(=N)N)C(=O)N[C@@H](CCCNC(=N)N)C(=O)N[C@@H](CO)C(=O)N[C@@H](C)C(=O)N[C@@H](CC(=O)O)C(=O)N[C@H](C(=O)N[C@@H](Cc1ccccc1)C(=O)N[C@H](C(N)=O)[C@@H](C)CC)[C@@H](C)CC)C(C)C)[C@@H](C)O [Compound 10] (Palmitoyl-TVFHSSE[dK]RRSADIFI-NH2) — higher, 55%
- CCCCCCCCCCCCCCCC(=O)N[C@H](C(=O)N[C@H](C(=O)N[C@@H](Cc1ccccc1)C(=O)N[C@@H](CCCNC(=N)N)C(=O)N[C@@H](CO)C(=O)N[C@@H](CO)C(=O)N[C@@H](Cc1c[nH]cn1)C(=O)N[C@H](CCCCN)C(=O)N[C@@H](CCCNC(=N)N)C(=O)N[C@@H](CCCNC(=N)N)C(=O)N[C@@H](CO)C(=O)N[C@@H](C)C(=O)N[C@@H](CC(=O)O)C(=O)N[C@H](C(=O)N[C@@H](Cc1ccccc1)C(=O)N[C@H](C(N)=O)[C@@H](C)CC)[C@@H](C)CC)C(C)C)[C@@H](C)O [Compound 12] (Palmitoyl-TVFRSSH[dK]RRSADIFI-NH2) — higher, 73%
- CCCCCCCCCCCCCCCC(=O)N[C@H](C(=O)N[C@H](C(=O)N[C@@H](Cc1ccccc1)C(=O)N[C@@H](CCCNC(=N)N)C(=O)N[C@@H](CO)C(=O)N[C@@H](CO)C(=O)N[C@@H](CCC(=O)O)C(=O)N[C@H](CCCCN)C(=O)N[C@@H](Cc1c[nH]cn1)C(=O)N[C@@H](CCCNC(=N)N)C(=O)N[C@@H](CO)C(=O)N[C@@H](C)C(=O)N[C@@H](CC(=O)O)C(=O)N[C@H](C(=O)N[C@@H](Cc1ccccc1)C(=O)N[C@H](C(N)=O)[C@@H](C)CC)[C@@H](C)CC)C(C)C)[C@@H](C)O [Compound 13] (Palmitoyl-TVFRSSE[dK]HRSADIFI-NH2) — higher, 56%
- CCCCCCCCCCCCCCCC(=O)N[C@H](C(=O)N[C@H](C(=O)N[C@@H](Cc1ccccc1)C(=O)N[C@@H](CCC(N)=O)C(=O)N[C@@H](CO)C(=O)N[C@@H](CO)C(=O)N[C@@H](CCC(=O)O)C(=O)N[C@H](CCCCN)C(=O)N[C@@H](CCCNC(=N)N)C(=O)N[C@@H](CCCNC(=N)N)C(=O)N[C@@H](CO)C(=O)N[C@@H](C)C(=O)N[C@@H](CC(=O)O)C(=O)N[C@H](C(=O)N[C@@H](Cc1ccccc1)C(=O)N[C@H](C(N)=O)[C@@H](C)CC)[C@@H](C)CC)C(C)C)[C@@H](C)O [Compound 22] (Palmitoyl-TVFQSSE[dK]RRSADIFI-NH2) — higher, 59%
- CCCCCCCCCCCCCCCC(=O)N[C@H](C(=O)N[C@H](C(=O)N[C@@H](Cc1ccccc1)C(=O)N[C@@H](CCCNC(=N)N)C(=O)N[C@@H](CCC(N)=O)C(=O)N[C@@H](CO)C(=O)N[C@@H](CCC(=O)O)C(=O)N[C@H](CCCCN)C(=O)N[C@@H](CCCNC(=N)N)C(=O)N[C@@H](CCCNC(=N)N)C(=O)N[C@@H](CO)C(=O)N[C@@H](C)C(=O)N[C@@H](CC(=O)O)C(=O)N[C@H](C(=O)N[C@@H](Cc1ccccc1)C(=O)N[C@H](C(N)=O)[C@@H](C)CC)[C@@H](C)CC)C(C)C)[C@@H](C)O [Compound 23] (Palmitoyl-TVFRQSE[dK]RRSADIFI-NH2) — higher, 55%
- CCCCCCCCCCCCCCCC(=O)N[C@H](C(=O)N[C@H](C(=O)N[C@@H](Cc1ccccc1)C(=O)N[C@@H](CCCNC(=N)N)C(=O)N[C@@H](CO)C(=O)N[C@@H](CO)C(=O)N[C@@H](CCC(N)=O)C(=O)N[C@H](CCCCN)C(=O)N[C@@H](CCCNC(=N)N)C(=O)N[C@@H](CCCNC(=N)N)C(=O)N[C@@H](CO)C(=O)N[C@@H](C)C(=O)N[C@@H](CC(=O)O)C(=O)N[C@H](C(=O)N[C@@H](Cc1ccccc1)C(=O)N[C@H](C(N)=O)[C@@H](C)CC)[C@@H](C)CC)C(C)C)[C@@H](C)O [Compound 25] (Palmitoyl-TVFRSSQ[dK]RRSADIFI-NH2) — lower, 45%
- CCCCCCCCCCCCCCCC(=O)N[C@H](C(=O)N[C@@H](CC(=O)O)C(=O)N[C@@H](Cc1ccccc1)C(=O)N[C@@H](CCCNC(=N)N)C(=O)N[C@@H](CO)C(=O)N[C@@H](CO)C(=O)N[C@@H](CCC(=O)O)C(=O)N[C@H](CCCCN)C(=O)N[C@@H](CCCNC(=N)N)C(=O)N[C@@H](CCCNC(=N)N)C(=O)N[C@@H](CO)C(=O)N[C@@H](C)C(=O)N[C@@H](CC(=O)O)C(=O)N[C@H](C(=O)N[C@@H](Cc1ccccc1)C(=O)N[C@H](C(N)=O)[C@@H](C)CC)[C@@H](C)CC)[C@@H](C)O [Compound 34] (Palmitoyl-TDFRSSE[dK]RRSADIFI-NH2) — lower, 44%
- CCCCCCCCCCCCCCCC(=O)N[C@H](C(=O)N[C@H](C(=O)N[C@@H](Cc1ccccc1)C(=O)N[C@@H](CCCNC(=N)N)C(=O)N[C@@H](CC(=O)O)C(=O)N[C@@H](CO)C(=O)N[C@@H](CCC(=O)O)C(=O)N[C@H](CCCCN)C(=O)N[C@@H](CCCNC(=N)N)C(=O)N[C@@H](CCCNC(=N)N)C(=O)N[C@@H](CO)C(=O)N[C@@H](C)C(=O)N[C@@H](CC(=O)O)C(=O)N[C@H](C(=O)N[C@@H](Cc1ccccc1)C(=O)N[C@H](C(N)=O)[C@@H](C)CC)[C@@H](C)CC)C(C)C)[C@@H](C)O [Compound 36] (Palmitoyl-TVFRDSE[dK]RRSADIFI-NH2) — lower, 49%
- CCCCCCCCCCCCCCCC(=O)N[C@H](C(=O)N[C@H](C(=O)N[C@@H](Cc1ccccc1)C(=O)N[C@@H](CCCNC(=N)N)C(=O)N[C@@H](CO)C(=O)N[C@@H](CC(=O)O)C(=O)N[C@@H](CCC(=O)O)C(=O)N[C@H](CCCCN)C(=O)N[C@@H](CCCNC(=N)N)C(=O)N[C@@H](CCCNC(=N)N)C(=O)N[C@@H](CO)C(=O)N[C@@H](C)C(=O)N[C@@H](CC(=O)O)C(=O)N[C@H](C(=O)N[C@@H](Cc1ccccc1)C(=O)N[C@H](C(N)=O)[C@@H](C)CC)[C@@H](C)CC)C(C)C)[C@@H](C)O [Compound 37] (Palmitoyl-TVFRSDE[dK]RRSADIFI-NH2) — the same, 50%
- CCCCCCCCCCCCCCCC(=O)N1CCC[C@H]1C(=O)N[C@H](C(=O)N[C@@H](Cc1ccccc1)C(=O)N[C@@H](CCCNC(=N)N)C(=O)N[C@@H](CO)C(=O)N[C@@H](CO)C(=O)N[C@@H](CCC(=O)O)C(=O)N[C@H](CCCCN)C(=O)N[C@@H](CCCNC(=N)N)C(=O)N[C@@H](CCCNC(=N)N)C(=O)N[C@@H](CO)C(=O)N[C@@H](C)C(=O)N[C@@H](CC(=O)O)C(=O)N[C@H](C(=O)N[C@@H](Cc1ccccc1)C(=O)N[C@H](C(N)=O)[C@@H](C)CC)[C@@H](C)CC)C(C)C [Compound 42] (Palmitoyl-PVFRSSE[dK]RRSADIFI-NH2) — higher, 83%
- CCCCCCCCCCCCCCCC(=O)N[C@H](C(=O)N1CCC[C@H]1C(=O)N[C@@H](Cc1ccccc1)C(=O)N[C@@H](CCCNC(=N)N)C(=O)N[C@@H](CO)C(=O)N[C@@H](CO)C(=O)N[C@@H](CCC(=O)O)C(=O)N[C@H](CCCCN)C(=O)N[C@@H](CCCNC(=N)N)C(=O)N[C@@H](CCCNC(=N)N)C(=O)N[C@@H](CO)C(=O)N[C@@H](C)C(=O)N[C@@H](CC(=O)O)C(=O)N[C@H](C(=O)N[C@@H](Cc1ccccc1)C(=O)N[C@H](C(N)=O)[C@@H](C)CC)[C@@H](C)CC)[C@@H](C)O [Compound 43] (Palmitoyl-TPFRSSE[dK]RRSADIFI-NH2) — lower, 39%
